Results on 14 compounds are retold here after patent US9198902B2, “1,4-dihydropyridine-3,5-dicarboxylate derivatives and preparation and use thereof” (Xuanzhu Pharma Co., Ltd., priority 2011, dated 2015).

What is called IC50 is the concentration needed to halve the response being measured.

The subject of assay [1] is SHRs. Nature of the assay: In vivo hypotensive activity in SHRs, DSI implant-type remote blood pressure measurement. Further details: species or system rats. The note with it: male SHRs, 10 mg/kg po, monitored 24 hours. The procedure:
The in vivo hypotensive activity assay was conducted according to DSI experimental procedure with reference to page 56 of WO 2009/056934 A1. The agents to be tested, lercanidipine, barnidipine, amlodipine, azelnidipine, efonidipine and manidipine, were accurately weighed. Each agent was dissolved in DMSO. To the resulting solution was added 50% of the corresponding volume of PEG400 so that the final concentration of each agent was 1 mg/ml, and the final concentration of DMSO was 3%. […] Each compound was dissolved in DMSO. […] The compound to be tested, Compound 15, was accurately weighed. This compound was dissolved in DMSO. […] The compound to be tested, Compound 16 (optical activity)+108.34° and Compound 17 (optical activity optical activity)+36.4°, were accurately weighed. […] The test for hypotensive effect: Male SHRs were subjected to an abdominal aorta implantation using an implant, and used in the test after 7-10 days of recovery. The administration was an intragastric administration. One hour before the administration, the measured blood pressure was used as the pre-administration basic blood pressure value. After the administration, SHRs, allowed free access to the diet, were continuously monitored with a DSI implant-type blood pressure remote measurement system for 24 hours.

Assay [2] has as its target L-type calcium ion channels (Cavia porcellus, UniProt O35505). Nature of the assay: L-type calcium ion channel inhibition, whole cell patch-clamp (electrophysiological method). It counts as cell-based. The conditions noted are these: left ventricle muscle cells of guinea pigs, room temperature. The text has this: 2. Test for L- and T-Type Calcium Ion Channel Inhibitors
This experiment was assigned to HD Biosciences Corporation (Shanghai) and conducted with an electrophysiological method.
It was done with reference to the method as disclosed by Jung-Ha Lee, et. al., “Identification of T-Type α1H Ca^2+ Channels (Cav3.2) in Major Pelvic Ganglion Neurons”. J Neurophysiol 87:2844-2850, 2002.
Test samples were weighed accurately and diluted in a 3-fold stepwise dilution so that the final concentrations were as follows:
L-type test: Left ventricle muscle cells were separated from guinea pigs. The cells were used in the experiment in eight hours. The ionic current of a single cell was recorded by applying the whole cell patch-clamp technique at room temperature, wherein the clamp current was −80 mV, and the pulse interval was 10 s. The inward current (the activiation was started from 0 mV) is the L-type calcium current (ICa,L).
The electrode inner liquid (mM): CsCl 120, TEA-Cl 20, CaCl2 1, EGTA-CsOH 11, Hepes 10, Mg-ATP 5, pH7.3;
The electrode outer liquid (mM): NaCl 135, CsCl 5.4, CaCl2 1.8, MgCl2 1, Hepes 5, glucose 10, pH7.4.
(In patch-clamp work, channel activity is measured electrically.)

Assay [3] deals with SHRs (spontaneous hypertensive rats). Nature of the assay: In vivo hypotensive activity in SHRs, tail-pinch method. The conditions noted are these: male SHRs, 10 mg/kg po; for Max ΔMAP (mmHg ± SEM): measured 1-24 h after administration. The procedure:
The in vivo hypotensive activity assay was conducted according to the tail-pinch method with reference to Folia pharmacol. Japon. 97, 115-126 (1991).
The agents to be tested, lercanidipine, barnidipine, amlodipine, azelnidipine, efonidipine and manidipine, were accurately weighed respectively. Each agent was dissolved in DMSO. To the resulting solution was added 50% of the corresponding volume of PEG400 so that the final concentration of each agent was 1 mg/ml, and the final concentration of DMSO was 3%.
The compounds to be tested, Compound 18, Compound 21, Compound 22, Compound 23, and Compound 26, were accurately weighed respectively. Each compound was dissolved in DMSO. To the resulting solution was added 50% of the corresponding volume of PEG400 so that the final concentration of each compound was 1 mg/ml, and the final concentration of DMSO was 3%.
The compounds to be tested, Compound 19 and Compound 20, were accurately weighed respectively. Each compound was suspended in 0.5% MC so that the final concentration of each compound was 1 mg/ml.
The test for hypotensive effect: Male SHRs (spontaneous hypertensive rats) were randomly allocated into a control group and an administration group. The administration was an intragastric administration. One hour before the administration, the measured blood pressure was used as the pre-administration basic blood pressure value. After the administration, the contractive pressure, the heart rate and the mean arterial pressure of SHRs at six time points, i.e. 1, 2, 4, 6, 8 and 24 hours after the administration, were measured with a Softron BP-98A non-invasive blood pressure instrument respectively.

The target in assay [4] is Human Cav3.2 (Homo sapiens, UniProt O95180). Nature of the assay: T-type calcium ion channel inhibition, FLIPR method. It counts as cell-based. The note with it: Human Cav3.2 in stable HEK-293 cells, FLIPR Calcium 4 No-Wash kit. As for the experimental part: T-type tests for Compound 19 and Compound 20 were assigned to Chan Test Corporation, and conducted according to the FLIPR experimental procedure as follows.
Chain of Human Cav3.2 (O95180 whole entry): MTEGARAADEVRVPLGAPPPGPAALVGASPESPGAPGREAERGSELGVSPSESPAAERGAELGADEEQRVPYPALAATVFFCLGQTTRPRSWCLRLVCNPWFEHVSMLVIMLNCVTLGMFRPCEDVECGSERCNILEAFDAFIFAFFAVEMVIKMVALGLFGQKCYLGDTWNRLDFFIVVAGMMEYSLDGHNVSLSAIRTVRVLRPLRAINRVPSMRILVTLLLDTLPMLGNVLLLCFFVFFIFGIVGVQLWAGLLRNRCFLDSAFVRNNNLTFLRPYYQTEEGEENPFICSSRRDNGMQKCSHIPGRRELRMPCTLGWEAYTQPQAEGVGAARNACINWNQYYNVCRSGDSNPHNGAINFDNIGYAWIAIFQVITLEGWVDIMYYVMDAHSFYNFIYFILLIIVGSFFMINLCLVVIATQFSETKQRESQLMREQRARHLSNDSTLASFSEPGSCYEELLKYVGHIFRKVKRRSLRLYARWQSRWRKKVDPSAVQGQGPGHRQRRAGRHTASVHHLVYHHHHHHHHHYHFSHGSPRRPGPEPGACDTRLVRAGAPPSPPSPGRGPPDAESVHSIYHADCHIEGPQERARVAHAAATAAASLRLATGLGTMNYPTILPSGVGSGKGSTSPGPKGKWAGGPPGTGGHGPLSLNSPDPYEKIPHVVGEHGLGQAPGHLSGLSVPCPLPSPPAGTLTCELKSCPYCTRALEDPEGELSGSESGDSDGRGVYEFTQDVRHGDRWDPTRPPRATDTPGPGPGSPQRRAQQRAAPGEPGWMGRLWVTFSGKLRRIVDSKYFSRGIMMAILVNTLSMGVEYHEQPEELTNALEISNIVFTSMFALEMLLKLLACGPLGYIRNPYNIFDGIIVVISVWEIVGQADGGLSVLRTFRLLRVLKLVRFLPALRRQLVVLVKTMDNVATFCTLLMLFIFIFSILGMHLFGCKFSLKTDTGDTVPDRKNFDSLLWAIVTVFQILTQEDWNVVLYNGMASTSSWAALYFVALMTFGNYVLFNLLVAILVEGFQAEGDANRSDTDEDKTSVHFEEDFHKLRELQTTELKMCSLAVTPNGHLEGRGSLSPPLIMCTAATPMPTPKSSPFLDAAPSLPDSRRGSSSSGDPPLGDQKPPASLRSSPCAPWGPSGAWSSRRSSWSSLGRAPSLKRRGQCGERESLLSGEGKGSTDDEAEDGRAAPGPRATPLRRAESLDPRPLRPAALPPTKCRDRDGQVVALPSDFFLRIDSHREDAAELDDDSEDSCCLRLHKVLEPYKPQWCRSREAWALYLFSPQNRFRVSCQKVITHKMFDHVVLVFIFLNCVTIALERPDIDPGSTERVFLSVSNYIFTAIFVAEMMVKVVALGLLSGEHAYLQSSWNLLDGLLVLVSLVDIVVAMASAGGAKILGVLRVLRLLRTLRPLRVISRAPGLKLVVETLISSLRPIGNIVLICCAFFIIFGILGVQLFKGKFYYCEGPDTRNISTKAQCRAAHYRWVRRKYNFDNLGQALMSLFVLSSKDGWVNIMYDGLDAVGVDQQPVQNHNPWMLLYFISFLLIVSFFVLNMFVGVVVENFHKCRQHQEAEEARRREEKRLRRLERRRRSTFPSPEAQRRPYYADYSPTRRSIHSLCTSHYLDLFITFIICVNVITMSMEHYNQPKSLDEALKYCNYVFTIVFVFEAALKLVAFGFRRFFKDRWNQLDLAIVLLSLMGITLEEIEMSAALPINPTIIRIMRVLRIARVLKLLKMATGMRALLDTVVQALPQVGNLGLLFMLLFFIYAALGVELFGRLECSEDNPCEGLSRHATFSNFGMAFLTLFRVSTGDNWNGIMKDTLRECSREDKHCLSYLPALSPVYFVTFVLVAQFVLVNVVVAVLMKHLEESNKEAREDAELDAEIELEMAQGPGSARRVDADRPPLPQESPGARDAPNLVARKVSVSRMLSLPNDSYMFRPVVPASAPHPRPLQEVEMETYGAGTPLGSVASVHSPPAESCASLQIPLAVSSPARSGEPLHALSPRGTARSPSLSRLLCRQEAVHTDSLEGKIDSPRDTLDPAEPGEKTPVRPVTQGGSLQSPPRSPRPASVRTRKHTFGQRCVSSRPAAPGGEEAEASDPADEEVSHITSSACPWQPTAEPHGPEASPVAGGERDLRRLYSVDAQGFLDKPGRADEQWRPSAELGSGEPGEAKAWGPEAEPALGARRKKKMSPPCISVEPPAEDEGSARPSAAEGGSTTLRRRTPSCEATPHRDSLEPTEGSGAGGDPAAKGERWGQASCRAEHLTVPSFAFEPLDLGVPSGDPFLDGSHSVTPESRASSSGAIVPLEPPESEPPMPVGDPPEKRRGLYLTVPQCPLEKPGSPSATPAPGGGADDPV
It was done with reference to the method disclosed on page 48 of WO 2009/056934 A1.
Samples were weighed accurately and diluted in a 3-fold stepwise dilution so that the final concentrations were as follows: 100 μM, 30 μM, 10 μM, 3 μM, 1 μM, 0.3 μM, 0.1 μM, 0.03 μM, 0.01 μM, 0.003 μM.
T-type test: Human Cav3.2 was cloned in stable HEK-293 cells, and then the operation was conducted with FLIPR Calcium 4 No-Wash kit. The cell medium was removed. To an HEPES solution free of calcium ion was added 20 μL dye to dye for 30 minutes at a temperature of 37° C. This buffer free of calcium ion included NaCl, 137 mM; KCl, 0.5 mM; MgCl2 mM, 1 mM; HEPES, 10 mM; glucose, 10 mM. The pH value was adjusted to 7.4 with NaOH. After 30 minutes, the buffer was placed at room temperature for 30 minutes. Then 5 μL of compound to be tested, solvent or blank control were added. The compound was formulated with a buffer containing calcium ion, said buffer including KCl, 135 mM; CaCl2, 10.8 mM; MgCl2, 1 mM; HEPES, 10 mM; glucose, 10 mM. The collected fluorescence values were analyzed and the inhibition ratios were calculated.

Chain of L-type calcium ion channels (O35505 whole entry): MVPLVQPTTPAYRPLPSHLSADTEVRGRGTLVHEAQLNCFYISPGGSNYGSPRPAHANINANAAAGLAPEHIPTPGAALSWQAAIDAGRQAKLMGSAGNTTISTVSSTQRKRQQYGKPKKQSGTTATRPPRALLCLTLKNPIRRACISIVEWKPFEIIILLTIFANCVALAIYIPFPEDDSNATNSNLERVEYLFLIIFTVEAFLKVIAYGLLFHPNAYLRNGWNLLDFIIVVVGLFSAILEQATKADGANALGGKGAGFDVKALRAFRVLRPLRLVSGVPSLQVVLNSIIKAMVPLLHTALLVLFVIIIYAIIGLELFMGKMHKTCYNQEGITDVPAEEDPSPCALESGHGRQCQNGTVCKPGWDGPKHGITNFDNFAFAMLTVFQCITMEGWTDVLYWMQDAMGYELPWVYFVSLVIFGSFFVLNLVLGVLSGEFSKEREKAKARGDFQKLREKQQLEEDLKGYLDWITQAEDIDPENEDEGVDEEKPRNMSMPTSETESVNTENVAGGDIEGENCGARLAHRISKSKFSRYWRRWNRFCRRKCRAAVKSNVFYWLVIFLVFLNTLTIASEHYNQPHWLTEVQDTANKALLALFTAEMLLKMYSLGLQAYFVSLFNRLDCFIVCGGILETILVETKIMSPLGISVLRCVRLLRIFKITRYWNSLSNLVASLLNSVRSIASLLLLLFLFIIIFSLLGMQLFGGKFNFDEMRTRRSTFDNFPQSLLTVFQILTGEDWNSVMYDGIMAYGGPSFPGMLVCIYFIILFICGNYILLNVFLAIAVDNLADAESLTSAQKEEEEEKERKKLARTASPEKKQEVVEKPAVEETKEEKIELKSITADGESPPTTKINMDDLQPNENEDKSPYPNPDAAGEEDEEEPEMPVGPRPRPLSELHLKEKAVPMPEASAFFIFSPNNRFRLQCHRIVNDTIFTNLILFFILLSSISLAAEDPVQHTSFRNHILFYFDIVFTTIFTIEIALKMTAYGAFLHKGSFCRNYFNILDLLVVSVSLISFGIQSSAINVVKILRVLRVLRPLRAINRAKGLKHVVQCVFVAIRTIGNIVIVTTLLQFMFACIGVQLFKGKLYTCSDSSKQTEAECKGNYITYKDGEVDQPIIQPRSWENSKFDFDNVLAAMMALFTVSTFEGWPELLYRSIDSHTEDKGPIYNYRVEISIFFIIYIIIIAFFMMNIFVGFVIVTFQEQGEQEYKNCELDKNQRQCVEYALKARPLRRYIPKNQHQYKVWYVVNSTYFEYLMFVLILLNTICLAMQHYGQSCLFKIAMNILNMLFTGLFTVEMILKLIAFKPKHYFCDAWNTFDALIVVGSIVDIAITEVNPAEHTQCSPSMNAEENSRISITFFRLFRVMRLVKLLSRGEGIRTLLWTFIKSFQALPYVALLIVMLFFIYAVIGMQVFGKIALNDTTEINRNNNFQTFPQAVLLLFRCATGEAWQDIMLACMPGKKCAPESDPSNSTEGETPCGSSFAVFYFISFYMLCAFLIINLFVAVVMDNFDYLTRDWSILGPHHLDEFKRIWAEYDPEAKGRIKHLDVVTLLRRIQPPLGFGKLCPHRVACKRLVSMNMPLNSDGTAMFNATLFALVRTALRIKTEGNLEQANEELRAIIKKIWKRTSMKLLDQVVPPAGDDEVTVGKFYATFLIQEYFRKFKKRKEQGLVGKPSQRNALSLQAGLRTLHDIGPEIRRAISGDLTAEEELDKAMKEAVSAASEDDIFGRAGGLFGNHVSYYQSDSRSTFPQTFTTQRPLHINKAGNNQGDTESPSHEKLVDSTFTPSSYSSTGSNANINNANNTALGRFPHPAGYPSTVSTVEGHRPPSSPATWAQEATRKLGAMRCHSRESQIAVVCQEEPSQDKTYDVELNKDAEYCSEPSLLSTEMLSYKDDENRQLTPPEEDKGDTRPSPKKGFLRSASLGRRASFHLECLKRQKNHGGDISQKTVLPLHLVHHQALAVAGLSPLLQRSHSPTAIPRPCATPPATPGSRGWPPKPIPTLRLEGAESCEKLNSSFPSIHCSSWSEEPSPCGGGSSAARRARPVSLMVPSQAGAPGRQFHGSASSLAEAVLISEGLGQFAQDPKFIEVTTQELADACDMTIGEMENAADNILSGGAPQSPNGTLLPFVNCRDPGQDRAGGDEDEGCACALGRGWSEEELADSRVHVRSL

On to `COC(=O)C1=C(C)NC(C)=C(C(=O)OC2(C)CCN(Cc3ccccc3)C2)C1c1cccc([N+](=O)[O-])c1` (stereo not drawn) [Compound 1, 3-(1-benzyl-3-methylpyrrolidin-3-yl) 5-methyl 2,6-dimethyl-4-(3-nitrophenyl)-1,4-dihydropyridine-3,5-dicarboxylate], for which, in assay [1], the “Max ΔMAP (mmHg ± SEM)” value stood at 47 ± 7 mmHg and the “ΔMAP > 20 (mmHg) Duration time of action” value turned out to be 6 h.
The like results for `COC(=O)C1=C(C)NC(C)=C(C(=O)OC2(C)CCN(CCC(c3ccccc3)c3ccccc3)C2)C1c1cccc([N+](=O)[O-])c1` (stereo not drawn) [Compound 2, 3-[1-(3,3-diphenylpropyl)-3-methylpyrrolidin-3-yl] 5-methyl 2,6-dimethyl-4-(3-nitrophenyl)-1,4-dihydropyridine-3,5-dicarboxylate] were, in that order, 53 ± 7 mmHg and 16 h.
Turning to `COC(=O)C1=C(C)NC(C)=C(C(=O)OC2(C)CCN(CCC(c3ccccc3)c3ccccc3)C2)[C@@H]1c1cccc([N+](=O)[O-])c1` (stereo partly drawn) [Compound 14, (4R)-3-[1-(3,3-diphenylpropyl)-3-methylpyrrolidin-3-yl] 5-methyl 2,6-dimethyl-4-(3-nitrophenyl)-1,4-dihydropyridine-3,5-dicarboxylate], the IC50 in assay [2] was determined as 0.59 µM.
For the compound `COC(=O)C1=C(C)NC(C)=C(C(=O)OC2(C)CCN(CCC(c3ccccc3)c3ccccc3)C2)[C@H]1c1cccc([N+](=O)[O-])c1` (stereo partly drawn) [Compound 15, (4S)-3-[1-(3,3-diphenylpropyl)-3-methylpyrrolidin-3-yl] 5-methyl 2,6-dimethyl-4-(3-nitrophenyl)-1,4-dihydropyridine-3,5-dicarboxylate], the IC50 in assay [2] came out at 1.28 µM. In assay [1], the “Max ΔMAP (mmHg ± SEM)” value was 56 ± 1 mmHg and the “ΔMAP > 20 (mmHg) Duration time of action” value was found to be 14 h.
Consider `COC(=O)C1=C(C)NC(C)=C(C(=O)OC2(C)CCN(CC(c3ccccc3)c3ccccc3)C2)[C@H]1c1cccc([N+](=O)[O-])c1` (stereo partly drawn) [Compound 18, (4S)-3-[1-(2,2-diphenylethyl)-3-methylpyrrolidin-3-yl] 5-methyl 2,6-dimethyl-4-(3-nitrophenyl)-1,4-dihydropyridine-3,5-dicarboxylate], for which, in assay [3], the “ΔMAP > 20 (mmHg) Duration time of action” value is listed as 24 h and the “Max ΔMAP (mmHg ± SEM)” value is 69 ± 4 mmHg.
With `COC(=O)C1=C(C)NC(C)=C(C(=O)O[C@]2(C)CCN(CC(c3ccccc3)c3ccccc3)C2)[C@H]1c1cccc([N+](=O)[O-])c1` [Compound 19, (S)-3-[(R)-1-(2,2-diphenylethyl)-3-methylpyrrolidin-3-yl] 5-methyl 2,6-dimethyl-4-(3-nitrophenyl)-1,4-dihydropyridine-3,5-dicarboxylate], the IC50 in assay [4] stood at 75.4 µM. For the same compound, in assay [3], the “ΔMAP > 20 (mmHg) Duration time of action” value worked out at 24 h and the “Max ΔMAP (mmHg ± SEM)” value is 72 ± 8 mmHg.
The like results for `COC(=O)C1=C(C)NC(C)=C(C(=O)O[C@@]2(C)CCN(CC(c3ccccc3)c3ccccc3)C2)[C@H]1c1cccc([N+](=O)[O-])c1` [Compound 20, (S)-3-[(S)-1-(2,2-diphenylethyl)-3-methylpyrrolidin-3-yl] 5-methyl 2,6-dimethyl-4-(3-nitrophenyl)-1,4-dihydropyridine-3,5-dicarboxylate] were, in that order, 66.9 µM, 24 h and 80 ± 14 mmHg.
For the compound `COC(=O)C1=C(C)NC(C)=C(C(=O)OC2(C)CCN(CCCc3ccccc3)C2)[C@H]1c1cccc([N+](=O)[O-])c1` (stereo partly drawn) [Compound 21, (4S)-3-[3-methyl-1-(3-phenylpropyl)pyrrolidin-3-yl] 5-methyl 2,6-dimethyl-4-(3-nitrophenyl)-1,4-dihydropyridine-3,5-dicarboxylate], in assay [3], the “ΔMAP > 20 (mmHg) Duration time of action” value was 24 h and the “Max ΔMAP (mmHg ± SEM)” value was 28 ± 12 mmHg.
With `COC(=O)C1=C(C)NC(C)=C(C(=O)OC2(C)CCN(CCc3ccccc3)C2)[C@H]1c1cccc([N+](=O)[O-])c1` (stereo partly drawn) [Compound 22, (4S)-3-(3-methyl-1-phenylethylpyrrolidin-3-yl) 5-methyl 2,6-dimethyl-4-(3-nitrophenyl)-1,4-dihydropyridine-3,5-dicarboxylate], in assay [3], the “ΔMAP > 20 (mmHg) Duration time of action” value is recorded as 24 h and the “Max ΔMAP (mmHg ± SEM)” value worked out at 43 ± 7 mmHg.
As for `COC(=O)C1=C(C)NC(C)=C(C(=O)OC2(C)CCN(Cc3cc(F)cc(F)c3)C2)[C@H]1c1cccc([N+](=O)[O-])c1` (stereo partly drawn) [Compound 23, (4S)-3-[1-(3,5-difluorobenzyl)-3-methylpyrrolidin-3-yl]5-methyl 2,6-dimethyl-4-(3-nitrophenyl)-1,4-dihydropyridine-3,5-dicarboxylate], in assay [3], the “ΔMAP > 20 (mmHg) Duration time of action” value came to 24 h and the “Max ΔMAP (mmHg ± SEM)” value is listed as 60 ± 12 mmHg.
For `COC(=O)C1=C(C)NC(C)=C(C(=O)OC2(C)CCN(C(c3ccccc3)c3ccccc3)C2)[C@H]1c1cccc([N+](=O)[O-])c1` (stereo partly drawn) [Compound 26, (4S)-3-[1-diphenylmethyl-3-methylpyrrolidin-3-yl]5-methyl 2,6-dimethyl-4-(3-nitrophenyl)-1,4-dihydropyridine-3,5-dicarboxylate], in assay [3], the “ΔMAP > 20 (mmHg) Duration time of action” value is given as 24 h and the “Max ΔMAP (mmHg ± SEM)” value was found to be 55 ± 13 mmHg.
In the case of `CC1=C(C(=O)OC(C)C)C(c2cccc([N+](=O)[O-])c2)C(C(=O)OC2CN(C(c3ccccc3)c3ccccc3)C2)=C(N)N1` (stereo not drawn) [azelnidipine, reference compound], in assay [2], the half-inhibitory concentration (IC50) was 1.39 µM. Further, in assay [3], the “ΔMAP > 20 (mmHg) Duration time of action” value is 24 h and the “Max ΔMAP (mmHg ± SEM)” value stood at 79 ± 13 mmHg. Besides, in assay [1], the “Max ΔMAP (mmHg ± SEM)” value came to 40 ± 5 mmHg and the “ΔMAP > 20 (mmHg) Duration time of action” value worked out at 11 h.
On to `CC1=C(C(=O)OCCN(Cc2ccccc2)c2ccccc2)C(c2cccc([N+](=O)[O-])c2)C(P2(=O)OCC(C)(C)CO2)=C(C)N1` (stereo not drawn) [efonidipine, reference compound], for which, in assay [3], the “ΔMAP > 20 (mmHg) Duration time of action” value stood at 10 h and the “Max ΔMAP (mmHg ± SEM)” value is 69 ± 5 mmHg.
`COC(=O)C1=C(C)NC(C)=C(C(=O)OCCN2CCN(C(c3ccccc3)c3ccccc3)CC2)C1c1cccc([N+](=O)[O-])c1` (stereo not drawn) [manidipine, reference compound]: in assay [3], the “ΔMAP > 20 (mmHg) Duration time of action” value came to 23 h and the “Max ΔMAP (mmHg ± SEM)” value was determined as 74 ± 5 mmHg.
